The source of these data is PMC6767220, “Active Anti-Inflammatory and Hypolipidemic Derivatives of Lorazepam” (Molecules, 2019).

In one data set the target is T1, soybean lipoxygenase-1 (Glycine max, UniProt P08170).
T1 sequence (P08170 1-839): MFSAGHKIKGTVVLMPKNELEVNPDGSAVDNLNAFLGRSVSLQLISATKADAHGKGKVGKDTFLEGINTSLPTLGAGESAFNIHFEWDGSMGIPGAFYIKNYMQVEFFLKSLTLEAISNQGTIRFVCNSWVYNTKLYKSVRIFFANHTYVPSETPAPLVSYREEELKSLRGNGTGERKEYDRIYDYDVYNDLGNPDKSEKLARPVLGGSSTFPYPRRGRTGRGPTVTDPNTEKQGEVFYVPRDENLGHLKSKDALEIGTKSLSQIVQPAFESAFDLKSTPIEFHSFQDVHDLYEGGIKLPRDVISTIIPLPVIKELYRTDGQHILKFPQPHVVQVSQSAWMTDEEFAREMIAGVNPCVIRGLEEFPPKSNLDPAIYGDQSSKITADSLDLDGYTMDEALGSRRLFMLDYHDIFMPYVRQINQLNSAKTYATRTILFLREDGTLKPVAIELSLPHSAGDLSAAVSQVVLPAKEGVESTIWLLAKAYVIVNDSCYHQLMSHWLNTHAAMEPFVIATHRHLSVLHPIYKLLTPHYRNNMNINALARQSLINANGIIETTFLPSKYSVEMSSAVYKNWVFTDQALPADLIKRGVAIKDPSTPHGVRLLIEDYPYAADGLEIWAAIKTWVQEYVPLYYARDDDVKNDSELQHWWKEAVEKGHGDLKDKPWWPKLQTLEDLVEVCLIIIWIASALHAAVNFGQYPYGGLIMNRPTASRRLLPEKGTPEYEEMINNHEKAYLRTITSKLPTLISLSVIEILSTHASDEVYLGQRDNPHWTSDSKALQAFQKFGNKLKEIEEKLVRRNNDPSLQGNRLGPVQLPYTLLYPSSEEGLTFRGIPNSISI
The experiment in a line: Inhibition of soybean lipoxygenase. Type of data set: biochemical. Conditions: sodium linoleate 0.1 mM, 7 min incubation; for IC50: read-out: Lipoxygenase IC50. As to the method: The reaction mixture contained the test compounds dissolved in ethanol and soybean lipoxygenase (250 U/mL) in Tris buffer (pH 9). The reaction was initiated by the addition of sodium linoleate (0.1 mM) and monitored for 7 min at 28 °C, by recording the absorbance of a conjugated diene structure at 234 nm. For the estimation of the type of inhibition, the above experiments were repeated, using sodium linoleate at 1 mM, which is higher than the saturating substrate concentration.

Data set [1] concerns inflammation. Conditions: cited from earlier work.
Data set [2] deals with inflammation. Also on record: method as in PMID 25792646. Conditions: cited from earlier work.
Data set [3] has as its system carrageenan-induced rat paw oedema. The experiment in a line: Carrageenan-induced rat paw oedema. Conditions: ip, i.p. 0.15 mmol/kg, 3.5 h post administration, vs controls, read-out: % Oedema Reduction. Type of data set: in vivo. The protocol: An aqueous solution of carrageenan was prepared (1% w/v) and 0.1 mL of this was injected i.d. into the right hind paw of female rats; the left paw served as control. The tested compounds (suspended in water with a few drops of Tween 80) were given intra peritoneally (i.p.) (0.15 mmol/kg) 5 min prior to the carrageenan injection. After 3.5 h the hind paws were weighed separately. The produced oedema was estimated as paw weight increase.
(In general: The carrageenan paw model is a standard test of acute inflammation.)

Data set [4] concerns Triton WR1339 (tyloxapol) induced hyperlipidemia. The experiment in a line: Triton WR1339 (tyloxapol) induced hyperlipidemia: plasma TC, TG, LDL-C. The class given is in vivo. The conditions noted are these: ip, rat plasma, 24 h, tyloxapol 200 mg/kg i.p.; for inhibition in vivo at 150 µmol/kg: dose i.p. 150 µmol/kg; for inhibition in vivo at 50 µmol/kg: dose i.p. 50 µmol/kg.
Data set [5] in a line: Interaction with the stable radical DPPH. The conditions noted are these: DPPH 200 µΜ, 30 min incubation. As to the method:
Compounds (in absolute ethanol, final concentration 50–200 µM) were added to an equal volume of an ethanolic solution of DPPH (final concentration 200 µM) at room temperature (22 ± 2 °C). Absorbance (517 nm) was recorded after 30 min [22].
On the technique in general: Loss of DPPH colour is used to gauge radical scavenging.

For data set [6], the system named is rat hepatic microsomal membrane lipid peroxidation. The experiment in a line: Inhibition of rat hepatic microsomal membrane lipid peroxidation induced by ferrous ascorbate. The class given is biochemical. The conditions noted are these: rat hepatic microsomal fraction, ferrous ascorbate, 45 min incubation. The protocol: The incubation mixture contained heat-inactivated rat hepatic microsomal fraction, ascorbic acid (0.2 mM) in Tris–HCl/KCl buffer (pH 7.4) and the test compounds dissolved in dimethylsulphoxide. The reaction was initiated by FeSO4 (10 µM) and the mixture was incubated at 37 °C. Aliquots were taken at various time intervals for 45 min. Lipid peroxidation was assessed spectrophotometrically (535 against 600 nm) by the determination of 2-thiobarbituric acid (TBA) reactive material.

Where [7] appears, read: read-out: % Reduction LDL-C (LDL cholesterol).
The mark [8] stands for this setting: read-out: % Reduction TC (total cholesterol).
[9] abbreviates: read-out: % Reduction TG (triglycerides).

Molecules are shown by their SMILES. Read-outs that look alike come from different tables or passages of the source.

As for `Cc1cc(C(C)(C)C)c(O)c(C(C)(C)C)c1` [BHT, 2,6-di-tert-butyl-4-methylphenol], the IC50 (in general, the midpoint of a concentration-inhibition curve) on soybean lipoxygenase-1 was 192 µM. Also, in the data set on inflammation [1], the “Anti-inflammatory action in vivo” value is “lacks such action”. Moreover, the “Anti-inflammatory action in vitro” value with inflammation [2] is listed as “lacks such action”.
Consider `Cc1c(C)c2c(c(C)c1O)CCC(C)(C(=O)OC1N=C(c3ccccc3Cl)c3cc(Cl)ccc3NC1=O)O2` (stereo not drawn) [Compound 7, 7-Chloro-5-(2-chlorophenyl)-2-oxo-2,3-dihydro-1H-benzo[e][1,4]diazepin-3-yl 6-hydroxy-2,5,7,8-tetramethylchroman-2-carboxylate], for which the melting point (in general, the temperature, or range, at which the solid turns liquid) is 138 to 144 °C. Further, in data set [3], the inhibition in vivo at 150 µmol/kg amounted to 56%. Besides, the inhibition in vivo at 150 µmol/kg in data set [4] (setting [7]) was 69%. Moreover, the inhibition in vivo at 150 µmol/kg in data set [4] (setting [8]) worked out at 72%. Further, in data set [4] (setting [9]), the inhibition in vivo at 150 µmol/kg stood at 64%. Moreover, in data set [5] (compound 50 µΜ), the “Percent Interaction with DPPH” value is 46%. Further, the “Percent Interaction with DPPH” value in data set [5] (compound 100 µΜ) came out at 82%. Moreover, in data set [5] (compound 200 µΜ), the “Percent Interaction with DPPH” value was 91%. This compound came in with an IC50 in data set [6] of 2.5 µM. In addition, on soybean lipoxygenase-1, the “Lipoxygenase IC50” value is listed as “-”.
`CC(C)(C)c1cc(C=CC(=O)OC2N=C(c3ccccc3Cl)c3cc(Cl)ccc3NC2=O)cc(C(C)(C)C)c1O` (stereo not drawn) [Compound 8, (E)-7-Chloro-5-(2-chlorophenyl)-2-oxo-2,3-dihydro-1H-benzo[e][1,4]diazepin-3-yl 3-(3,5-di-tert-butyl-4-hydroxyphenyl)acrylate] gave a melting point of 274 °C. In addition, in data set [3], the inhibition in vivo at 150 µmol/kg worked out at 37%. In data set [4] (setting [7]), the inhibition in vivo at 50 µmol/kg is 44% and the inhibition in vivo at 150 µmol/kg was 63%. Besides, in data set [4] (setting [8]), the inhibition in vivo at 50 µmol/kg was determined as 59% and the inhibition in vivo at 150 µmol/kg was 81%. In addition, in data set [4] (setting [9]), the inhibition in vivo at 50 µmol/kg is 52% and the inhibition in vivo at 150 µmol/kg came to 66%. Besides, in data set [5] (compound 50 µΜ), the “Percent Interaction with DPPH” value was found to be 30%. Also, the “Percent Interaction with DPPH” value in data set [5] (compound 100 µΜ) is 49%. In data set [5] (compound 200 µΜ), the “Percent Interaction with DPPH” value was found to be 90%. For the same compound, in data set [6], the IC50 is greater than 100 µM. Besides, at soybean lipoxygenase-1, the IC50 was 44 µM.
On to `O=C(O)CCCC[C@@H]1CCSS1` [lipoic acid, (R)-5-(1,2-dithiolan-3-yl)pentanoic acid], for which the Anti-inflammatory action entry in the data set with inflammation [1] (at similar doses) was “weak anti-inflammatory agent”.
